Results taken from patent publication US8680052B1, “Methods of treating, reducing the incidence of, and/or preventing ischemic events” (The Medicines Company, priority 2013, dated 2014).
Like-named read-outs stand apart in the source and are kept apart here.

Tested on: patients with acute coronary syndromes undergoing PCI
Settings: for All-cause mortality OR (95% CI) / IDR OR (95% CI) / MI OR (95% CI) / Mortality/MI/IDR OR (95% CI) / Mortality/Q-wave MI/IDR OR (95% CI) / Mortality/Q-wave MI/Stent thrombosis OR (95% CI) / Q-wave MI OR (95% CI) / Stent thrombosis OR (95% CI): Cangrelor vs Clopidogrel; for Angiographic complications (site reported): Abrupt vessel closure / Angiographic complications (site reported): Acute stent thrombosis / Angiographic complications (site reported): Need for urgent CABG / Angiographic complications (site reported): New thrombus or suspected thrombus / Angiographic complications (site reported): Threatened abrupt closure / Angiographic complications (site reported): Unsuccessful procedure: index PCI
Protocol: Patients were eligible for enrollment if they had stable angina, unstable angina, or non-ST-segment elevation (NSTE) MI with obstructive coronary artery disease and were scheduled to undergo PCI.
The infusion began within 30 minutes prior to PCI and continued for at least 2 hours or until the conclusion of the index procedure, whichever was longer. At the treating physician's discretion, the infusion could be continued for 4 hours.
All patients received aspirin 75-325 mg per local site standards. Adjunctive anticoagulants (unfractionated heparin, low molecular weight heparin, bivalirudin, or fondaparinux) and the procedural use of glycoprotein IIb/IIIa inhibitors were determined by the treating physician.
The primary efficacy endpoint was the 48-hour composite of all-cause mortality, MI, or ischemia-driven revascularization. Prespecified secondary efficacy endpoints included the composite of mortality or MI at 48 hours and 30 days; the composite of mortality, MI, or ischemia-driven revascularization at 30 days; the components of the composite endpoints at 48 hours and 30 days; stroke at 48 hours; abrupt closure, threatened abrupt closure, need for urgent coronary artery bypass grafting, or unsuccessful procedure during the index PCI; acute (24 hours) and 48 hours stent thrombosis; and all-cause mortality at 6 months and 1 year.
Rates of MI and ischemia-driven revascularization up to 30 days following the index procedure were assessed. Ischemia-driven revascularization was defined as symptoms of myocardial ischemia leading to urgent (within 24 hours of the last episode of ischemia) revascularization, which must have occurred after the index procedure concluded (i.e., guidewire removal). New electrocardiographic changes, acute pulmonary edema, ventricular arrhythmias, or hemodynamic instability could also constitute evidence of ischemia.
MI was defined by a new Q wave (duration >0.03 seconds) in two contiguous electrocardiographic leads or elevations in creatine kinase (CK) and CK-MB, including a rise of CK-MB≧3 times the local upper limit or normal and, when biomarkers were elevated prior to PCI, an additional 50% above baseline. One baseline troponin measurement was required for patients undergoing urgent PCI. Measurements of CK-MB were obtained at 2, 10, 17, and 24 hours post-PCI.
The primary efficacy analysis was to be determined in the modified intent-to-treat (mITT) population, defined as all randomized patients (excluding STEMI cohort) who received at least one dose of study drug and underwent the index PCI. The safety population consisted of all randomized patients who received any study drug. Patients in the safety analyses were assigned to a treatment arm based on treatment received, not as randomized.

CSCCNc1nc(SCCC(F)(F)F)nc2c1ncn2[C@@H]1O[C@H](COP(=O)(O)OP(=O)(O)C(Cl)(Cl)P(=O)(O)O)[C@@H](O)[C@H]1O [Cangrelor, cangrelor]
Q-wave MI (30 days, MITT Without STEMI): 7 (0.2) no. (%)
Stent thrombosis (30 days, MITT Without STEMI): 20 (0.5) no. (%)
All-cause mortality OR (95% CI) (30 days, MITT Without STEMI): 1.177 (0.704, 1.967)
IDR OR (95% CI) (30 days, MITT Without STEMI): 0.837 (0.559, 1.254)
MI OR (95% CI) (30 days, MITT Without STEMI): 1.072 (0.905, 1.272)
Mortality/MI/IDR OR (95% CI) (30 days, MITT Without STEMI): 1.044 (0.891, 1.224)
Mortality/Q-wave MI/IDR OR (95% CI) (30 days, MITT Without STEMI): 0.930 (0.679, 1.273)
Mortality/Q-wave MI/Stent thrombosis OR (95% CI) (30 days, MITT Without STEMI): 1.030 (0.702, 1.511)
Q-wave MI OR (95% CI) (30 days, MITT Without STEMI): 0.462 (0.188, 1.134)
Stent thrombosis OR (95% CI) (30 days, MITT Without STEMI): 0.991 (0.533, 1.846)
All-cause mortality OR (95% CI) (30 days, MITT): 1.046 (0.670, 1.635)
IDR OR (95% CI) (30 days, MITT): 0.902 (0.634, 1.283)
MI OR (95% CI) (30 days, MITT): 1.078 (0.914, 1.271)
Mortality/MI/IDR OR (95% CI) (30 days, MITT): 1.042 (0.895, 1.211)
Mortality/Q-wave MI/IDR OR (95% CI) (30 days, MITT): 0.927 (0.703, 1.222)
Mortality/Q-wave MI/Stent thrombosis OR (95% CI) (30 days, MITT): 0.924 (0.663, 1.290)
Q-wave MI OR (95% CI) (30 days, MITT): 0.595 (0.260, 1.362)
Stent thrombosis OR (95% CI) (30 days, MITT): 0.894 (0.530, 1.506)
All-cause mortality (30 days, Safety population): 40 (0.9) no. (%)
IDR (30 days, Safety population): 60 (1.4) no. (%)
MI (30 days, Safety population): 318 (7.4) no. (%)
Mortality/MI/IDR (30 days, Safety population): 379 (8.8) no. (%)
Mortality/Q-wave MI/IDR (30 days, Safety population): 100 (2.3) no. (%)
Mortality/Q-wave MI/Stent thrombosis (30 days, Safety population): 68 (1.6) no. (%)
Q-wave MI (30 days, Safety population): 9 (0.2) no. (%)
Stent thrombosis (30 days, Safety population): 27 (0.6) no. (%)
All-cause mortality OR (95% CI) (30 days, Safety population): 0.974 (0.629, 1.508)
IDR OR (95% CI) (30 days, Safety population): 0.893 (0.628, 1.268)
MI OR (95% CI) (30 days, Safety population): 1.090 (0.925, 1.285)
Mortality/MI/IDR OR (95% CI) (30 days, Safety population): 1.040 (0.895, 1.209)
Mortality/Q-wave MI/IDR OR (95% CI) (30 days, Safety population): 0.897 (0.682, 1.179)
Mortality/Q-wave MI/Stent thrombosis OR (95% CI) (30 days, Safety population): 0.892 (0.641, 1.240)
Q-wave MI OR (95% CI) (30 days, Safety population): 0.598 (0.262, 1.368)
Stent thrombosis OR (95% CI) (30 days, Safety population): 0.898 (0.533, 1.513)
Angiographic complications (site reported): Abrupt vessel closure (ITT): 24 (0.6)
Angiographic complications (site reported): Acute stent thrombosis (ITT): 2 (0.0)
Angiographic complications (site reported): Need for urgent CABG (ITT): 10 (0.2)
Angiographic complications (site reported): New thrombus or suspected thrombus (ITT): 17 (0.4)
Angiographic complications (site reported): Threatened abrupt closure (ITT): 13 (0.3)
Angiographic complications (site reported): Unsuccessful procedure (ITT): 90 (2.1)
Angiographic complications (site reported): Abrupt vessel closure (ITT With STEMI): 4 (0.9)
Angiographic complications (site reported): Acute stent thrombosis (ITT With STEMI): 0 (0.0)
Angiographic complications (site reported): Need for urgent CABG (ITT With STEMI): 2 (0.4)
Angiographic complications (site reported): New thrombus or suspected thrombus (ITT With STEMI): 1 (0.2)
Angiographic complications (site reported): Threatened abrupt closure (ITT With STEMI): 4 (0.9)
Angiographic complications (site reported): Unsuccessful procedure (ITT With STEMI): 9 (2.0)
Angiographic complications (site reported): Abrupt vessel closure (ITT Without STEMI): 20 (0.5)
Angiographic complications (site reported): Acute stent thrombosis (ITT Without STEMI): 2 (0.1)
Angiographic complications (site reported): Need for urgent CABG (ITT Without STEMI): 8 (0.2)
Angiographic complications (site reported): New thrombus or suspected thrombus (ITT Without STEMI): 16 (0.4)
Angiographic complications (site reported): Threatened abrupt closure (ITT Without STEMI): 9 (0.2)
Angiographic complications (site reported): Unsuccessful procedure (ITT Without STEMI): 81 (2.1)
Angiographic complications (site reported): Abrupt vessel closure (MITT): 24 (0.6)
Angiographic complications (site reported): Acute stent thrombosis (MITT): 2 (0.0)
Angiographic complications (site reported): Need for urgent CABG (MITT): 8 (0.2)
Angiographic complications (site reported): New thrombus or suspected thrombus (MITT): 17 (0.4)
Angiographic complications (site reported): Threatened abrupt closure (MITT): 13 (0.3)
Angiographic complications (site reported): Unsuccessful procedure (MITT): 90 (2.1)
Angiographic complications (site reported): Abrupt vessel closure (MITT NSTEMI): 20 (0.5)
Angiographic complications (site reported): Acute stent thrombosis (MITT NSTEMI): 2 (0.1)
Angiographic complications (site reported): Need for urgent CABG (MITT NSTEMI): 7 (0.2)
Angiographic complications (site reported): New thrombus or suspected thrombus (MITT NSTEMI): 16 (0.4)
Angiographic complications (site reported): Threatened abrupt closure (MITT NSTEMI): 9 (0.2)
Angiographic complications (site reported): Unsuccessful procedure (MITT NSTEMI): 81 (2.1)
Angiographic complications (site reported): Abrupt vessel closure (Safety population): 24 (0.6)
Angiographic complications (site reported): Acute stent thrombosis (Safety population): 2 (0.0)
Angiographic complications (site reported): Need for urgent CABG (Safety population): 8 (0.2)
Angiographic complications (site reported): New thrombus or suspected thrombus (Safety population): 17 (0.4)
Angiographic complications (site reported): Threatened abrupt closure (Safety population): 13 (0.3)
Angiographic complications (site reported): Unsuccessful procedure (Safety population): 90 (2.1)
